Measured values taken from ChEMBL document CHEMBL1201862, “PubChem BioAssay data set” (2004).
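All cell lines were grown in 96-well plates and treated with compound for 48 hours. GI50 marks 50% less growth.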 The source made the active and inactive calls. No stated cut-off is given here; in the data, active = GI50 up to about 1.1 µM and inactive = higher.

How the values were obtained:
Test in all cases: growth of human tumour cells (NCI), 48 h
[1] = system: 786-0
[2] = system: A498
[3] = system: A549
[4] = system: ACHN
[5] = system: BT-549
[6] = system: CAKI-1
[7] = system: CCRF-CEM
[8] = system: COLO 205
[9] = system: EKVX
[10] = system: HCC 2998
[11] = system: HCT-116
[12] = system: HCT-15
[13] = system: HL-60
[14] = system: HOP-62
[15] = system: HOP-92
[16] = system: HT-29
[17] = system: Hs-578T
[18] = system: IGROV-1
[19] = system: K562
[20] = system: KM12
[21] = system: LOX IMVI
[22] = system: M14
[23] = system: MCF7
[24] = system: MDA-MB-231
[25] = system: MDA-N
[26] = system: MOLT-4
[27] = system: Malme-3M
[28] = system: NCI-H226
[29] = system: NCI-H23
[30] = system: NCI-H460
[31] = system: NCI/ADR-RES
[32] = system: OVCAR-3
[33] = system: OVCAR-4
[34] = system: OVCAR-5
[35] = system: OVCAR-8
[36] = system: PC-3
[37] = system: RXF 393
[38] = system: SF-295
[39] = system: SF-539
[40] = system: SK-MEL-28
[41] = system: SK-MEL-2
[42] = system: SK-MEL-5
[43] = system: SK-OV-3
[44] = system: SN12C
[45] = system: SNB-19
[46] = system: SNB-75
[47] = system: SR
[48] = system: SW-620
[49] = system: TK-10
[50] = system: U-251
[51] = system: UACC-257
[52] = system: UACC-62
[53] = system: UO-31
[54] = system: DU-145
[55] = system: MDA-MB-435
[56] = system: NCI-H522
[57] = system: RPMI-8226
[58] = system: SF-268
[59] = system: T47D

## CC1(C)N(OC2CCCCO2)C(c2ccccc2)C(c2ccccc2)=[N+]1[O-] (stereo not given)
[1]
  GI50: > 100 µM (inactive)
[2]
  GI50: > 100 µM (inactive)
[3]
  GI50: 58.6 µM (inactive)
[4]
  GI50: > 100 µM (inactive)
[5]
  GI50: > 100 µM (inactive)
[6]
  GI50: > 100 µM (inactive)
[7]
  GI50: 60.5 µM (inactive)
[8]
  GI50: > 100 µM (inactive)
[9]
  GI50: > 100 µM (inactive)
[10]
  GI50: > 100 µM (inactive)
[11]
  GI50: 60.3 µM (inactive)
[12]
  GI50: > 100 µM
[13]
  GI50: 8.93 µM (inactive)
[14]
  GI50: > 100 µM (inactive)
[15]
  GI50: > 100 µM (inactive)
[16]
  GI50: > 100 µM (inactive)
[17]
  GI50: 94 µM (inactive)
[18]
  GI50: > 100 µM (inactive)
[19]
  GI50: 58.9 µM (inactive)
[20]
  GI50: 93.5 µM (inactive)
[21]
  GI50: > 100 µM (inactive)
[22]
  GI50: 64 µM (inactive)
[23]
  GI50: > 100 µM (inactive)
[24]
  GI50: > 100 µM (inactive)
[25]
  GI50: > 100 µM (inactive)
[26]
  GI50: 30 µM (inactive)
[27]
  GI50: > 100 µM (inactive)
[28]
  GI50: > 100 µM (inactive)
[29]
  GI50: 49.9 µM (inactive)
[30]
  GI50: 66.7 µM (inactive)
[31]
  GI50: 49.2 µM (inactive)
[32]
  GI50: 54.3 µM (inactive)
[33]
  GI50: > 100 µM (inactive)
[34]
  GI50: > 100 µM (inactive)
[35]
  GI50: 32.1 µM (inactive)
[36]
  GI50: 52.2 µM (inactive)
[37]
  GI50: 47.5 µM (inactive)
[38]
  GI50: 41 µM (inactive)
[39]
  GI50: > 100 µM (inactive)
[40]
  GI50: > 100 µM (inactive)
[41]
  GI50: 51.1 µM (inactive)
[42]
  GI50: 52.1 µM (inactive)
[43]
  GI50: > 100 µM (inactive)
[44]
  GI50: > 100 µM (inactive)
[45]
  GI50: > 100 µM (inactive)
[46]
  GI50: 20.1 µM (inactive)
[47]
  GI50: 27 µM (inactive)
[48]
  GI50: > 100 µM (inactive)
[49]
  GI50: > 100 µM (inactive)
[50]
  GI50: > 100 µM (inactive)
[51]
  GI50: > 100 µM (inactive)
[52]
  GI50: > 100 µM (inactive)
[53]
  GI50: 59.8 µM (inactive)

## C/C(CC(O)(C(F)(F)F)C(F)(F)F)=N\NC(N)=S
[1]
  GI50: > 10 µM (inactive)
[2]
  GI50: > 10 µM (inactive)
[3]
  GI50: > 10 µM (inactive)
[4]
  GI50: > 10 µM (inactive)
[6]
  GI50: > 10 µM (inactive)
[7]
  GI50: > 10 µM (inactive)
[8]
  GI50: > 10 µM (inactive)
[54]
  GI50: > 10 µM (inactive)
[9]
  GI50: > 10 µM (inactive)
[10]
  GI50: > 10 µM (inactive)
[11]
  GI50: > 10 µM (inactive)
[12]
  GI50: > 10 µM
[13]
  GI50: > 10 µM (inactive)
[14]
  GI50: > 10 µM (inactive)
[15]
  GI50: > 10 µM (inactive)
[16]
  GI50: > 10 µM (inactive)
[17]
  GI50: > 10 µM (inactive)
[18]
  GI50: > 10 µM (inactive)
[19]
  GI50: > 10 µM (inactive)
[20]
  GI50: > 10 µM (inactive)
[21]
  GI50: > 10 µM (inactive)
[22]
  GI50: > 10 µM (inactive)
[23]
  GI50: > 10 µM (inactive)
[24]
  GI50: > 10 µM (inactive)
[55]
  GI50: > 10 µM (inactive)
[25]
  GI50: > 10 µM (inactive)
[26]
  GI50: > 10 µM (inactive)
[27]
  GI50: > 10 µM (inactive)
[28]
  GI50: > 10 µM (inactive)
[29]
  GI50: > 10 µM (inactive)
[30]
  GI50: > 10 µM (inactive)
[56]
  GI50: > 10 µM (inactive)
[31]
  GI50: > 10 µM (inactive)
[32]
  GI50: > 10 µM (inactive)
[33]
  GI50: > 10 µM (inactive)
[35]
  GI50: > 10 µM (inactive)
[36]
  GI50: > 10 µM (inactive)
[57]
  GI50: > 10 µM (inactive)
[37]
  GI50: > 10 µM (inactive)
[58]
  GI50: > 10 µM (inactive)
[38]
  GI50: > 10 µM (inactive)
[39]
  GI50: > 10 µM (inactive)
[40]
  GI50: > 10 µM (inactive)
[41]
  GI50: > 10 µM (inactive)
[42]
  GI50: > 10 µM (inactive)
[43]
  GI50: > 10 µM (inactive)
[44]
  GI50: > 10 µM (inactive)
[45]
  GI50: > 10 µM (inactive)
[46]
  GI50: > 10 µM (inactive)
[47]
  GI50: > 10 µM (inactive)
[48]
  GI50: > 10 µM (inactive)
[59]
  GI50: > 10 µM (inactive)
[49]
  GI50: > 10 µM (inactive)
[50]
  GI50: > 10 µM (inactive)
[51]
  GI50: > 10 µM (inactive)
[52]
  GI50: > 10 µM (inactive)
[53]
  GI50: > 10 µM (inactive)
